Assay results: patent US20240049720A1, “A SYNERGISTIC AGRICULTURAL COMPOSITION” (priority 2021, published 2024)

Legend:
[1] = test system: Xanthomonas campestris pv. vesicatoria; test: Foliar application on tomato plants (var. Pony express), control of bacterial disease; type: in vivo; settings: foliar spray, three applications every 7 days, kasugamycin 2.1 g/kg and/or copper 8 g/kg (17.32 g/kg copper monoglycinate)
From the text: Example 3: Foliar Application of Kasugamycin and Copper Glycinate in Tomato Plants (Var. Pony Express) for Controlling Xanthomonas campestris pv. vesicatoria
Tomato plants (var. Pony express) were foliar sprayed with formulations having kasugamycin alone, copper monoglycinate alone, and combination of kasugamycin and copper monoglycinate. The formulation having kasugamycin alone was applied at a dosage of 2.1 g/kg of kasugamycin (2.3 g/kg of kasugamycin hydrochloride hydrate) and the treatment was designated as T1. The formulation having copper monoglycinate was applied at a dosage of 8 g/kg of copper (17.32 g/kg of copper monoglycinate) and the treatment was designated as T2. The formulation having kasugamycin and copper monoglycinate was applied at a dosage of 2.1 g/kg of kasugamycin (2.3 g/kg of kasugamycin hydrochloride hydrate) and 8 g/kg of copper (17.32 g/kg of copper monoglycinate) and the treatment was designated as T3.
Three applications were made every 7 days when the first symptoms of the disease appeared, and the % control of […] was determined. Control percentage of Xanthomonas campestris pv. vesicatoria with the K+CuGly mixture, as well as of kasugamycin and copper glycinate separately are provided in Table 2 below: […]

Erwinia amylovora = test: Foliar application on apple trees (var. gala), control of Erwinia amylovora; type: in vivo; settings: apple plants var. Gala; foliar spray, three applications every 7 days; kasugamycin 3.15 g/kg and/or copper 8 g/kg (17.32 g/kg copper monoglycinate)
From the text: Example 4: Foliar Application of Kasugamycin and Copper Glycinate in Apple Trees (var. gala) for Controlling Erwinia amylovora
Apple trees (var. gala) were foliar sprayed with formulations having kasugamycin alone, copper glycinate alone, and combination of kasugamycin and copper glycinate. The formulation having Kasugamycin alone was applied at a dosage of 3.15 g/kg of kasugamycin (3.45 g/kg of kasugamycin hydrochloride hydrate). The formulation having copper monoglycinate was applied at a dosage of 8 g/kg of copper (17.32 g/kg of copper monoglycinate). The formulation having kasugamycin and copper monoglycinate was applied at a dosage of 3.15 g/kg of kasugamycin (3.45 g/kg of kasugamycin hydrochloride hydrate) and 8 g/kg of copper (17.32 g/kg of copper monoglycinate).
Three applications were made every 7 days when the first symptoms of the disease appeared, and the % control of Erwinia amylovora was determined. Control percentage of Erwinia amylovora with the K+CuGly mixture, as well as of kasugamycin and copper monoglycinate separately, are provided in Table 3 below: […]

Alternaria alternata = test: In vitro control of Alternaria alternata on PDA medium; type: cell-based; settings: dose 1 L/400 L water, mixture in 1:1 ratio, 28-30° C, dark, evaluated 7 days later
Description: In Vitro Control of Alternaria alternata Using Kasugamycin and Copper Glycinate
Alternaria alternata was cultivated was in solid potato dextrose agar medium. The efficacy of the mixture of kasugamycin and copper glycinate in a 1:1 ratio, and each component individually was tested.
(§1) The in vitro assessment of the products effectiveness was carried out as per the treatments discussed in Table 6. Accordingly, the components in each treatment were dissolved in PDA culture medium at the dose indicated above. The mixture was homogenized and poured into sterile petri dishes. Explants of 5 mm diameter of the fungus strain Alternaria alternata were placed on the petri dishes with PDA. The dishes were incubated inverted, in dark conditions at a temperature of 28-30° C. The evaluation of the inhibition of the fungus was carried out 7 days later. Control percentage of Alternaria alternata with the K+CuGly mixture, as well as of kasugamycin and copper monoglycinate separately are provided in Table 5 below: […]

Fusarium spp = test: In vitro control of Fusarium spp on PDA medium; type: cell-based; settings: strain isolated from potato, dose 1 L/400 L water, mixture in 1:1 ratio, 28-30° C, dark, evaluated 7 days later
Description: In Vitro Control of Fusarium spp Using Kasugamycin and Copper Glycinate
A strain of Fusarium spp isolated from potato was cultivated was in solid potato dextrose agar medium. The efficacy of the mixture of kasugamycin and copper glycinate in a 1:1 ratio, and each component individually was tested.
as §1, with “Table 4.” for “Table 6.”, “strain Fusarium spp.” for “strain Alternaria alternata”, “of Fusarium sp.” for “of Alternaria alternata”

Compound: C[C@H]1O[C@H](O[C@H]2[C@H](O)[C@@H](O)[C@@H](O)[C@H](O)[C@@H]2O)[C@@H](N)C[C@@H]1NC(=N)C(=O)O [Kasugamycin]
- % control of Xanthomonas campestris pv. vesicatoria [1]: 93.2%
- % control of Erwinia amylovora (Erwinia amylovora): 55.6%
- % Control of Alternaria alternata (Alternaria alternata): 79%
- % control of Fusarium sp. (Fusarium spp): 55%

Compound: Copper monoglycinate [Copper glycinate]
- % control of Xanthomonas campestris pv. vesicatoria [1]: 80.5%
- % control of Erwinia amylovora (Erwinia amylovora): 50%
- % Control of Alternaria alternata (Alternaria alternata): 53%
- % control of Fusarium sp. (Fusarium spp): 39%
